From patent US20110105608A1, “MODULATORS OF NUCLEAR RECEPTOR CO-REGULATORY PROTEIN BINDING” (NORTHEASTERN UNIVERSITY, priority 2008, published 2011)
“And” between values parts separate entries of the source, which are not always exact repeats. Equal entries are not always repeated. Where two headings read alike, the source gives them in different places. One block for each compound: values may come before it.

Experiments:
[1] = target: T1, interaction between ERα and the LXXLL2 peptide from the coactivator GRIP1 (Homo sapiens, UniProt P03372); test: Mammalian two hybrid assay; format: cell-based; details: FIG. 4; for Effect on the LXXLL-ER interaction: second assay, 5-40 μM
T1 construct: expressed in transfected cells
T1 sequence (P03372 1-595): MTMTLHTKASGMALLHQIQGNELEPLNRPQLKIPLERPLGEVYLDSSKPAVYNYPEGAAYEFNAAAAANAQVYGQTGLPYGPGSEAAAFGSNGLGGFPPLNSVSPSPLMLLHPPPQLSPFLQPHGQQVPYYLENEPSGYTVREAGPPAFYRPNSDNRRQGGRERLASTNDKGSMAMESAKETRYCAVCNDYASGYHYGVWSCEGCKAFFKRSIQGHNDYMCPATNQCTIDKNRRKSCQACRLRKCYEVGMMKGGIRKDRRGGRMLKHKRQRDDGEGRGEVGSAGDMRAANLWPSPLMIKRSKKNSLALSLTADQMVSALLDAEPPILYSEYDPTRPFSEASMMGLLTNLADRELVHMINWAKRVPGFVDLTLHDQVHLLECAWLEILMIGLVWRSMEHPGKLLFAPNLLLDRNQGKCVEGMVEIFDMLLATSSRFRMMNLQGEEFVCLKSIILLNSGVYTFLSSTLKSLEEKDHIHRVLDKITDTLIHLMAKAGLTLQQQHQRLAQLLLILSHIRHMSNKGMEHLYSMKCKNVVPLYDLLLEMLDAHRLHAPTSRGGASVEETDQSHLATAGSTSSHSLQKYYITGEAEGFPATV
Procedure: The Mammalian Hybrid Assay used a similar procedure as described in Chang et al., Molec. & Cellul. Biol., (1999) 19:12 8226-8239 except the compounds shown in Table 1, supra, were used instead of phage-derived peptides.
(§1) Human cervical cancer (HeLa) and hepatoma (HepG2) cells were cultured in minimum essential medium (Life Technologies, Inc.) supplemented with 10% fetal bovine serum (HyClone), 0.1 mM nonessential amino acids, and 1 mM sodium pyruvate (Life Technologies, Inc.) and maintained in a humidified 37° C. incubator with 5% CO2. For transient transfections, cells were split into 24-well plates 24 h before transfection. Lipofectin (Life Technologies, Inc.)-mediated transfection has been described in detail previously (27). A DNA-Lipofectin mixture containing a total of 3,000 ng of plasmid in each of triplicate samples was incubated with cells for 3 to 5 h, and transfection was stopped by replacing the transfection mix with fresh medium (minimal essential medium without phenol red) containing 10% charcoal-stripped serum. Receptor ligands were added to the cells 14 to 16 h before the assay. Luciferase and (3-galactosidase activities were measured. In mammalian two-hybrid assays, for a typical triplicate of transfection, 2,000 ng of 5×Gal4Luc3 reporter plasmid, 400 ng of receptor-VP16 fusion, 400 ng of pM (Gal4 DBD)-peptide fusion constructs, and 200 ng of normalization plasmid pCMVβgal were used. For ER transcription disruption assays, 1,600 ng of 3 XERE-TATA-Luc reporter, 200 ng of pCMVβgal, 400 ng of either pRST7ERα, pRST7ERβ, or other receptor mutant constructs, and 0 to 800 ng of pM-peptide fusion plasmids were used. The parent pM vector (Gal4DBD without peptide fusion) was used in these experiments to balance the amount of input DNA in transfections. All transfections were performed at least three times.
The mammalian two hybrid assay assessed whether the compounds disrupt the interaction between ERα and an LXXLL peptide derived from an ER coactivator (GRIP1). OH-tam is an ERα antagonist and was used as a positive control.
(§2) A second assay with another group of compounds was performed to determine the proper dose for use in cell culture. Compounds were used at concentrations between 5-40 μM. The mammalian two hybrid assay was used to examine the interaction between ERα and the LXXLL2 peptide from the coactivator GRIP1. #82 and OH-tam were used as controls.

[2] = system: cells; test: Toxicity to cells seen in the mammalian two hybrid dose-finding assay; format: cell-based, Human; details: FIG. 4; 5-40 μM in cell culture
Procedure: as §1, §2
AW78 was also effective. […] AW77 was very toxic to cells at the high concentrations tested.

[3] = target: T2, purified full-length human ERβ (Homo sapiens, UniProt Q92731); test: Estrogen receptor relative binding affinity assay, competitive radiometric, [3H]estradiol tracer; details: RBA of estradiol set to 100%, 18-24 h at 0° C.
T2 construct: purified full-length human ERα and ERβ were purchased from PanVera/Invitrogen; purchased PanVera/Invitrogen (Carlsbad, Calif.)
T2 sequence (Q92731 whole entry): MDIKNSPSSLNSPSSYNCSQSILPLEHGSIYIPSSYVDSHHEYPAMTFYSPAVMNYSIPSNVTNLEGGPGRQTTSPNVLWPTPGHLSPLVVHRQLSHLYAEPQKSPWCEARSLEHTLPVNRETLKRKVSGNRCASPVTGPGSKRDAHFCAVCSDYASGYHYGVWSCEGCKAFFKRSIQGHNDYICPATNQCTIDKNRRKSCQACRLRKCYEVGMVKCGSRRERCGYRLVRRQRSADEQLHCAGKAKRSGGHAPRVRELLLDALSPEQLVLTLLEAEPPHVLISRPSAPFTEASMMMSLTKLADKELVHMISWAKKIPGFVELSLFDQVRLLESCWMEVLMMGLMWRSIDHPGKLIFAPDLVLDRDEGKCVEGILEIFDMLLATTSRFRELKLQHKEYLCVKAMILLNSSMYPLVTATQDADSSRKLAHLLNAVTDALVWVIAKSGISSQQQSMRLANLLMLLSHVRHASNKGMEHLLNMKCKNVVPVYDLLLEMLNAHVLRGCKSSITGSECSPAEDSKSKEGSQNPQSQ
Procedure: (§3) Relative binding affinity assays were run to determine whether the compounds of this disclosure are traditional ligands that compete with estradiol. […]; purified full-length human ERα and ERβ were purchased from PanVera/Invitrogen (Carlsbad, Calif.). Incubations were conducted for 18-24 h at 0° C. Hydroxyapatite (BioRad, Hercules, Calif.) was used to absorb the receptor-ligand complexes, and free ligand was washed away. The binding affinities are expressed as relative binding affinity (RBA) values with the RBA of estradiol set to 100%. […]

[4] = target: T3, purified full-length human ERα (Homo sapiens, UniProt P03372); test: as above; details: RBA of estradiol set to 100%, 18-24 h at 0° C.
T3 construct: purified full-length human ERα and ERβ were purchased from PanVera/Invitrogen; purchased PanVera/Invitrogen (Carlsbad, Calif.)
T3 sequence (P03372 1-595): T1 sequence (P03372 1-595)
Procedure: as §3

[5] = target: T4, endogenous ERα in MCF7 cells (Homo sapiens, UniProt P03372); test: RBA assay, competition with 3H-estradiol in MCF7 cells; format: binding; details: 1 nM 3H-estradiol
T4 construct: the endogenous ERα in MCF7 cells; endogenous in cells; host or cells: MCF7 breast cancer cells
T4 sequence (P03372 1-595): T1 sequence (P03372 1-595)
Procedure: The RBA assay was performed to examine the ability of the compounds to compete for the binding of 1 nM of 3H-estradiol to the endogenous ERα in MCF7 cells.

[6] = target: T5, full-length ER alpha (Homo sapiens, UniProt P03372); test: Cell-based luciferase reporter gene assay (2ERE Luc) in HEC-1 cells; details: * = very small dynamic range compared to positive control
T5 construct: 100 ng of full-length ER alpha expression vector; expressed in transfected cells; host or cells: HEC-1 (human endometrial cancer) cells
T5 sequence (P03372 1-595): T1 sequence (P03372 1-595)
Source text: (§4) The protocols for both the time-resolved fluorescence resonance energy transfer (TR-FRET) assay and the cell-based reporter gene assay can be found in Parent, et al. (2008) J. Med. Chem. 51(20):6512-30. A 15-mer SRC1-Box II peptide and a published guanylhydrazone CBI (Lafrate et al., (2008) Bioorg. Med. Chem. 2008:16(23)) were used as positive controls in the TR-FRET and reporter gene assays, respectively.
Human endometrial cancer (HEC-1) cells were maintained in culture and transfected in 24 well plates. HBSS (50 μL/well), Holo-transferrin (Sigma T1408) (20 μL/well), and lipofectin (Invitrogen no. 18292-011) (5 μL/well) were incubated together at RT for 5 min. A DNA mixture containing 200 ng of pCMVβ-galactosidase as an internal control, 500 ng of the estrogen responsive reporter gene plasmid 2ERE Luc, and 100 ng of full-length ER alpha expression vector with 75 μL of HBSS per well was added to the first mixture and allowed to incubate for 20 min at RT. After changing the cell media to Opti-MEM (350 μL/well), 150 μL of the transfection mixture was added to each well. The cells were incubated at 37° C. in a 5% CO2 containing incubator for 6 h before the medium was replaced with fresh medium containing 5% charcoal-dextran-treated calf serum and the desired concentrations of ligands. Luciferase reporter gene activity was assayed 24 h after ligand addition.
In the initial screen, compounds were assayed in a dose-response format at concentrations ranging from 20 μM to 0.6 μM; […]. Upon validation of antagonistic activity, mechanism of action was examined by repeating the compound titration in the presence of both 10^-7 and 10^-9 M E2 with an expectation that changing the concentration of E2 100-fold would not change the IC50 of true coactivator binding inhibitors. These assays was also repeated to confirm results. The positive control is a guanyl hydrazone.

[7] = target: T6, ERα-417 / SRC-3-NRD (Homo sapiens, UniProt P03372, C381S/C530S); test: In vitro coactivator binding inhibitor TR-FRET CBI assay (displacement of SRC3); details: * = very small dynamic range compared to positive control
T6 sequence (P03372 304-554 C381S/C530S limits assumed): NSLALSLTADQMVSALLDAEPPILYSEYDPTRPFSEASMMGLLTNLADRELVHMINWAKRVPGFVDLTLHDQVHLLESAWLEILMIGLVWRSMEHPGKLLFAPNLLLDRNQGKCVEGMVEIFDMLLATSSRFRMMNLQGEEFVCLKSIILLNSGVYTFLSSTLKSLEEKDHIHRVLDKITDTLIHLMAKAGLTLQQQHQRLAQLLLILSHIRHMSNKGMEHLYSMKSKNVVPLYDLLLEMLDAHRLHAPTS
Source text: as §4
Purified ERα-417, labeled site-specifically with maleimide-biotin (Quanta BioDesign) and SRC-3-NRD, labeled nonspecifically through cysteine residues with iodoacetamide-fluorescein (Invitrogen), were used in the TR-FRET assays. […]. In a second 96-well Nunc polypropylene plate (Nalge Nunc International, Rochester, N.Y.), a 0.02 M solution of each coactivator binding inhibitor was serially diluted in a 1:10 fashion into DMF. Each concentration of coactivator binding inhibitor or vehicle was then diluted 1:10 into TR-FRET buffer, and 10 μL of this solution was added to the stock […] solution in the 96-well plate. After a 20 min incubation, 5 μL of 200 nM fluorescein-SRC-3-NRD was added to each well. This mixture was allowed to incubate for 1 h at RT in the dark. TR-FRET was measured using an excitation filter at 340/10 nm and emission filters for terbium and fluorescein at 495/20 and 520/25 nm, respectively. […].
The results are shown in FIGS. 1A and 1b and show the displacement of the SRC3. The peptide control has an IC50 of about 1 uM.

[8] = HEC-1 cells, in the presence of estradiol, read-out: Reporter Gene IC50
[9] = estradiol 1 μM, read-out: TR-FRET IC50
[10] = repeat run, read-out: TR-FRET Repeat
[11] = repeat run, read-out: Reporter Gene IC50 (μM) - repeat

ERβ RBA ([3]; listed as AW-III-82-56): 0.018% and 0.017% and 0.018 ± 0.001%
ERα RBA ([4]; listed as AW-III-82-56): 0.055% and 0.038% and 0.049 ± 0.016%
Competition for the binding of 3H-estradiol [5]: competed
IC50 [6, 8]: 6 µM
SMILES: CN(C)CCOc1ccc(-c2ccc(OCC(=O)O)c(C(C)(C)C)c2)cc1C(C)(C)C [AW-82]

Concentration at which the ERα-LXXLL2 interaction is inhibited ([1]; tested at 5-40 μM): about 40 μM
SMILES: CCOC(=O)COc1ccc(-c2ccc(O)c(C(C)C)c2)cc1C(C)C [PW-74]
Toxicity to cells [2]: no significant toxicity

Effect on the LXXLL-ER interaction [1]: induced LXXLL-ER interaction
SMILES: CCOC(=O)COc1ccc(-c2ccc(OCCN(C)C)c(C(C)C)c2)cc1C(C)C [PW-76]

Effect on the LXXLL-ER interaction [1]: induced LXXLL-ER interaction
SMILES: CCOC(=O)COc1ccc(-c2ccc(OCCN(C)C)c(Cc3ccccc3)c2)cc1Cc1ccccc1 [PW-78]

Effect on the LXXLL-ER interaction [1]: induced LXXLL-ER interaction
SMILES: CCOC(=O)COc1ccc(-c2ccc(OCCN(C)C)cc2)cc1 [PW-82]

ERβ RBA [3]: <0.001%
ERα RBA [4]: <0.001%
Competition for the binding of 3H-estradiol [5]: competed
IC50 [7, 9]: 205 µM
IC50 [7, 10]: 2050 µM
IC50 [6, 8]: 5.8 µM
IC50 [6, 11]: 18 µM
SMILES: CN(C)CCOc1ccc(-c2ccc(OCC(=O)O)cc2)cc1 [PW-83]

Second part, the compound before the results:

SMILES: CCOC(=O)COc1ccc(-c2ccc(O)c(C(C)(C)C)c2)cc1C(C)(C)C [AW-73]
Effect on the LXXLL-ER interaction [1]: induced LXXLL-ER interaction

SMILES: CCOC(=O)COc1ccc(-c2ccc(O)c(C(C)CC)c2)cc1C(C)CC (stereo not drawn) [AW-78]
Effect on the LXXLL-ER interaction [1]: effective

SMILES: CCOC(=O)COc1ccc(-c2ccc(OCCN(C)C)c(C(C)CC)c2)cc1C(C)CC (stereo not drawn) [AW-79]
Effect on the LXXLL-ER interaction [1]: induced LXXLL-ER interaction
Toxicity to cells [2]: toxic at a high dose

SMILES: CCOC(=O)COc1ccc(-c2ccc(O)cc2)cc1 [AW-84]
Effect on the LXXLL-ER interaction [1]: induced LXXLL-ER interaction

SMILES: CCC(C)c1cc(-c2ccc(OCC(=O)O)c(C(C)CC)c2)ccc1OCCN(C)C (stereo not drawn) [AW-87]
ERβ RBA [3]: ~0.001%
ERα RBA [4]: ~0.001%
IC50 [7, 9]: 87 µM
IC50 [7, 10]: 227 µM
IC50 [6, 8]: 1.8 µM
IC50 [6, 11]: 6 µM

SMILES: CCOC(=O)COc1ccc(-c2ccc(O)c(Cc3ccccc3)c2)cc1Cc1ccccc1 [PW-77]
Toxicity to cells [2]: very toxic

SMILES: CC(C)c1cc(-c2ccc(OCC(=O)O)c(C(C)C)c2)ccc1OCCN(C)C [PW-80]
ERβ RBA [3]: <0.001%
ERα RBA [4]: <0.001%
IC50 [7, 9]: 55 µM
IC50 [7, 10]: 583 µM
IC50 [6, 8]: 21 µM

SMILES: CN(C)CCOc1ccc(-c2ccc(OCC(=O)O)c(Cc3ccccc3)c2)cc1Cc1ccccc1 [PW-81]
ERβ RBA [3]: ~0.001%
ERα RBA [4]: <0.001%
Competition for the binding of 3H-estradiol [5]: did not compete
IC50 [7, 9]: 163 µM
IC50 [7, 10]: 1100 µM
IC50 [6, 8]: 13 µM
